Laboratory results reported in ChEMBL document CHEMBL3885881, “DrugMatrix”.

Species: Rattus norvegicus
Assay: DrugMatrix - Regimen: Daily Repeat
Type: toxicity, organism-based, Sprague-Dawley
Design: regimen Daily Repeat, gender Male, age 6-8 weeks
Conditions: in vivo, po, route oral GAVAGE, vehicle 100 % SALINE; for ABSOLUTE BASOPHIL / ABSOLUTE EOSINOPHIL / ABSOLUTE LYMPHOCYTE / ABSOLUTE MONOCYTE / ABSOLUTE SEGMENTED NEUTROPHIL / BASOPHIL / EOSINOPHIL / ERYTHROCYTE COUNT / HEMATOCRIT / HEMOGLOBIN / LEUKOCYTE COUNT / LYMPHOCYTE / MEAN CORPUSCULAR HEMOGLOBIN / MEAN CORPUSCULAR HEMOGLOBIN CONCENTRATION / MEAN CORPUSCULAR VOLUME / MONOCYTE / NEUTROPHIL / NUCLEATED RED BLOOD CELLS / PLATELET COUNT: tissue Blood; for ALANINE AMINOTRANSFERASE / ALBUMIN / ALKALINE PHOSPHATASE / ASPARTATE AMINOTRANSFERASE / BLOOD UREA NITROGEN / CARBON DIOXIDE / CHLORIDE / CHOLESTEROL / CREATINE PHOSPHOKINASE / CREATININE / GLUCOSE / LACTATE DEHYDROGENASE / LIPASE / PHOSPHORUS / POTASSIUM / SODIUM / TOTAL BILIRUBIN / TOTAL PROTEIN / URIC ACID: tissue Plasma
[1] = 10 mg/kg, […], dose level Low, time 7 day
[2] = 30 mg/kg, 72 h, dose level High, time 3 day
[3] = 30 mg/kg, […], dose level High, time 7 day

O=[As][O-].[Na+] [SODIUM ARSENITE]
ABSOLUTE BASOPHIL [1]: 0 CELLS/uL
ABSOLUTE EOSINOPHIL [1]: 0 CELLS/uL
ABSOLUTE LYMPHOCYTE [1]: 8882.33 CELLS/uL
ABSOLUTE MONOCYTE [1]: 292.83 CELLS/uL
ABSOLUTE SEGMENTED NEUTROPHIL [1]: 1158.17 CELLS/uL
BASOPHIL [1]: 0%
EOSINOPHIL [1]: 0%
ERYTHROCYTE COUNT [1]: 5.16 x10E6/uL
HEMATOCRIT [1]: 33.38%
HEMOGLOBIN [1]: 13.23 G/DL
LEUKOCYTE COUNT [1]: 10.33 x10E3/uL
LYMPHOCYTE [1]: 86.17%
MEAN CORPUSCULAR HEMOGLOBIN [1]: 25.68 pg
MEAN CORPUSCULAR HEMOGLOBIN CONCENTRATION [1]: 39.65 G/DL
MEAN CORPUSCULAR VOLUME [1]: 64.67 fL
MONOCYTE [1]: 2.83%
NEUTROPHIL [1]: 11%
NUCLEATED RED BLOOD CELLS [1]: 0 /100WBC
PLATELET COUNT [1]: 1191.67 x10E3/uL
ALANINE AMINOTRANSFERASE [1]: 43 u/L
ALBUMIN [1]: 4.45 G/DL
ALKALINE PHOSPHATASE [1]: 255.83 u/L
ASPARTATE AMINOTRANSFERASE [1]: 72.83 u/L
BLOOD UREA NITROGEN [1]: 13 mg/dL
CARBON DIOXIDE [1]: 29.83 mmol/L
CHLORIDE [1]: 98.83 MEQ/L
CHOLESTEROL [1]: 69.17 mg/dL
CREATINE PHOSPHOKINASE [1]: 248.67 u/L
CREATININE [1]: 0.18 mg/dL
GLUCOSE [1]: 139.17 mg/dL
LACTATE DEHYDROGENASE [1]: 91.83 u/L
LIPASE [1]: 10.5 u/L
PHOSPHORUS [1]: 11.75 mg/dL
POTASSIUM [1]: 6.25 MEQ/L
SODIUM [1]: 143.22 MEQ/L
TOTAL BILIRUBIN [1]: 0.15 mg/dL
TOTAL PROTEIN [1]: 5.95 G/DL
URIC ACID [1]: 0.93 mg/dL
ABSOLUTE BASOPHIL [2]: 0 CELLS/uL
ABSOLUTE EOSINOPHIL [2]: 24.17 CELLS/uL
ABSOLUTE LYMPHOCYTE [2]: 11880.83 CELLS/uL
ABSOLUTE MONOCYTE [2]: 220.67 CELLS/uL
ABSOLUTE SEGMENTED NEUTROPHIL [2]: 724.33 CELLS/uL
BASOPHIL [2]: 0%
EOSINOPHIL [2]: 0.17%
ERYTHROCYTE COUNT [2]: 5.56 x10E6/uL
HEMATOCRIT [2]: 36.35%
HEMOGLOBIN [2]: 12.9 G/DL
LEUKOCYTE COUNT [2]: 12.85 x10E3/uL
LYMPHOCYTE [2]: 92.17%
MEAN CORPUSCULAR HEMOGLOBIN [2]: 23.27 pg
MEAN CORPUSCULAR HEMOGLOBIN CONCENTRATION [2]: 35.48 G/DL
MEAN CORPUSCULAR VOLUME [2]: 65.6 fL
MONOCYTE [2]: 1.83%
NEUTROPHIL [2]: 5.83%
NUCLEATED RED BLOOD CELLS [2]: 0 /100WBC
PLATELET COUNT [2]: 1116 x10E3/uL
ALANINE AMINOTRANSFERASE [2]: 34.67 u/L
ALBUMIN [2]: 3.6 G/DL
ALKALINE PHOSPHATASE [2]: 172.83 u/L
ASPARTATE AMINOTRANSFERASE [2]: 76.5 u/L
BLOOD UREA NITROGEN [2]: 11.33 mg/dL
CARBON DIOXIDE [2]: 26.83 mmol/L
CHLORIDE [2]: 102.5 MEQ/L
CHOLESTEROL [2]: 75 mg/dL
CREATINE PHOSPHOKINASE [2]: 194.17 u/L
CREATININE [2]: 0.16 mg/dL
GLUCOSE [2]: 125.67 mg/dL
LACTATE DEHYDROGENASE [2]: 103.33 u/L
LIPASE [2]: 11.83 u/L
PHOSPHORUS [2]: 9.52 mg/dL
POTASSIUM [2]: 5.42 MEQ/L
SODIUM [2]: 143 MEQ/L
TOTAL BILIRUBIN [2]: 0.18 mg/dL
TOTAL PROTEIN [2]: 5.17 G/DL
URIC ACID [2]: 0.68 mg/dL
ABSOLUTE BASOPHIL [3]: 0 CELLS/uL
ABSOLUTE EOSINOPHIL [3]: 81.83 CELLS/uL
ABSOLUTE LYMPHOCYTE [3]: 12174.33 CELLS/uL
ABSOLUTE MONOCYTE [3]: 445.83 CELLS/uL
ABSOLUTE SEGMENTED NEUTROPHIL [3]: 2681.33 CELLS/uL
BASOPHIL [3]: 0%
EOSINOPHIL [3]: 0.5%
ERYTHROCYTE COUNT [3]: 5.27 x10E6/uL
HEMATOCRIT [3]: 32.5%
HEMOGLOBIN [3]: 12.83 G/DL
LEUKOCYTE COUNT [3]: 15.38 x10E3/uL
LYMPHOCYTE [3]: 81%
MEAN CORPUSCULAR HEMOGLOBIN [3]: 24.38 pg
MEAN CORPUSCULAR HEMOGLOBIN CONCENTRATION [3]: 39.47 G/DL
MEAN CORPUSCULAR VOLUME [3]: 61.75 fL
MONOCYTE [3]: 2.67%
NEUTROPHIL [3]: 15.83%
NUCLEATED RED BLOOD CELLS [3]: 0 /100WBC
PLATELET COUNT [3]: 966.33 x10E3/uL
ALANINE AMINOTRANSFERASE [3]: 39.67 u/L
ALBUMIN [3]: 4.02 G/DL
ALKALINE PHOSPHATASE [3]: 141.83 u/L
ASPARTATE AMINOTRANSFERASE [3]: 90 u/L
BLOOD UREA NITROGEN [3]: 16 mg/dL
CARBON DIOXIDE [3]: 27 mmol/L
CHLORIDE [3]: 100.17 MEQ/L
CHOLESTEROL [3]: 65.83 mg/dL
CREATINE PHOSPHOKINASE [3]: 152.83 u/L
CREATININE [3]: 0.14 mg/dL
GLUCOSE [3]: 126.83 mg/dL
LACTATE DEHYDROGENASE [3]: 98.33 u/L
LIPASE [3]: 9.83 u/L
PHOSPHORUS [3]: 9.15 mg/dL
POTASSIUM [3]: 5.46 MEQ/L
SODIUM [3]: 142.78 MEQ/L
TOTAL BILIRUBIN [3]: 0.13 mg/dL
TOTAL PROTEIN [3]: 5.38 G/DL
URIC ACID [3]: 0.55 mg/dL
